The numbers were not newly measured in patent US4000310A, “Pharmaceutical compositions containing 6-methyl-3,4-diphenyl-3,4,5,6-tetrahydro-2-pyrone or derivatives thereof” (Union Chimique Continentale-U.C.C, priority 1974, dated 1976), which cites them from elsewhere.

This data set relates to animals. Conditions: caffeine, general statement; cited from earlier work.

In the case of `Cn1c(=O)c2c(ncn2C)n(C)c1=O` [caffeine], the sleep inhibiting effect result is “caffeine does”.
